Laboratory results taken from patent US12486253B2, “Therapeutics for the degradation of mutant BRAF” (C4 THERAPEUTICS, INC., priority 2021, dated 2025).
Read-outs that look alike come from different tables or passages of the source.

Molecular target: BRAF V600E (Homo sapiens, UniProt P15056, V600E)
Experiment: HiBiT cellular BRAF^V600E degradation assay
Format: cell-based
Settings: for DC50: concentration at which 50% of total cellular BRAF^V600E is degraded; for Emax: read-out: HiBit 24 h Emax
[1] = A375.10 cells, 24 h, residual protein remaining in the cell

Sequence of BRAF V600E (P15056 whole entry V600E): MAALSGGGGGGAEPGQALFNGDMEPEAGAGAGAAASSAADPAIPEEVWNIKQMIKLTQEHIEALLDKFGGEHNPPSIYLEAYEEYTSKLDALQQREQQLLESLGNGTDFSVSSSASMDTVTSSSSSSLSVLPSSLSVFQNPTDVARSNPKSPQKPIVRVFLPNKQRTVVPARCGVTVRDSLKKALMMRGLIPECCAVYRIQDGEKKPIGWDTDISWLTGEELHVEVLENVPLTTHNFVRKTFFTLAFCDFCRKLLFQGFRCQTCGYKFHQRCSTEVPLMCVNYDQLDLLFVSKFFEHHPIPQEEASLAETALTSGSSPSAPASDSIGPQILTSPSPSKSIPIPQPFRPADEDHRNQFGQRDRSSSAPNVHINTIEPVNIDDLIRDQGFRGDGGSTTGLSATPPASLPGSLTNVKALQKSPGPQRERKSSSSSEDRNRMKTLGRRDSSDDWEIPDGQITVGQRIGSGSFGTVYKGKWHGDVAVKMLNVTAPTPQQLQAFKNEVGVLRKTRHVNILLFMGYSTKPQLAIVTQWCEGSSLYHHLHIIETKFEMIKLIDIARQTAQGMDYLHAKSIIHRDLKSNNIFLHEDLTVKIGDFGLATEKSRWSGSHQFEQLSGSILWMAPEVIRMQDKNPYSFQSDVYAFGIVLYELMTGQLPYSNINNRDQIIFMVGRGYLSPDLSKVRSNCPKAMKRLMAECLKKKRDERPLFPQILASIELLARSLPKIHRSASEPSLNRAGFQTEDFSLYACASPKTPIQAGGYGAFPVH

| SMILES | DC50 (A375.10 cells, 24 h) | Emax [1] | Emax |
| --- | --- | --- | --- |
| CCN(C)S(=O)(=O)Nc1ccc(F)c(Oc2ccc3ncn(CCCC4CCN(C(=O)CN5CCC(c6ccc(NC7CCC(=O)NC7=O)cc6)CC5)CC4)c(=O)c3c2)c1C#N (centres unmarked) [Example 4, 6-[2-cyano-3-[[ethyl(methyl)sulfamoyl]amino]-6-fluorophenoxy]-3-[3-[1-[2-[4-[4-[(2,6-dioxopiperidin-3-yl)amino]phenyl]piperidin-1-yl]acetyl]piperidin-4-yl]propyl]-4-oxoquinazoline] | 28.6 nM | 10.8% | – |
| CCN(C)S(=O)(=O)Nc1ccc(F)c(Oc2ccc3ncn(CCCC4CCN(C(=O)CN5CCC(c6ccc(C7CCC(=O)NC7=O)cc6F)CC5)CC4)c(=O)c3c2)c1C#N (centres unmarked) [Example 5, 6-[2-cyano-3-[[ethyl(methyl)sulfamoyl]amino]-6-fluorophenoxy]-3-[3-[1-[2-[4-[4-(2,6-dioxopiperidin-3-yl)-2-fluorophenyl]piperidin-1-yl]acetyl]piperidin-4-yl]propyl]-4-oxoquinazoline] | 49.3 nM | 13.1% | – |
| CCN(C)S(=O)(=O)Nc1ccc(F)c(Oc2ccc3ncn(CCCC4CCN(C(=O)CN5CCC(c6ccc(NC7CCC(=O)NC7=O)cc6F)CC5)CC4)c(=O)c3c2)c1C#N (centres unmarked) [Example 6, 6-[2-cyano-3-[[ethyl(methyl)sulfamoyl]amino]-6-fluorophenoxy]-3-[3-[1-[2-[4-[4-[(2,6-dioxopiperidin-3-yl)amino]-2-fluorophenyl]piperidin-1-yl]acetyl]piperidin-4-yl]propyl]-4-oxoquinazoline] | 22.7 nM | 11.5% | – |
| CCN(C)S(=O)(=O)Nc1ccc(F)c(Oc2ccc3ncn(CCCC4CCN(CC(=O)N5CCC(c6ccc(NC7CCC(=O)NC7=O)cc6)CC5)CC4)c(=O)c3c2)c1C#N (centres unmarked) [Example 7, 6-[2-cyano-3-[[ethyl(methyl)sulfamoyl]amino]-6-fluorophenoxy]-3-[3-[1-[2-[4-[4-[(2,6-dioxopiperidin-3-yl)amino]phenyl]piperidin-1-yl]-2-oxoethyl]piperidin-4-yl]propyl]-4-oxoquinazoline] | 42.2 nM | 15.2% | – |
| CCN(C)S(=O)(=O)Nc1ccc(F)c(Oc2ccc3ncn(CCN4CCN(C(=O)CN5CCC(c6ccc(NC7CCC(=O)NC7=O)cc6F)CC5)CC4)c(=O)c3c2)c1C#N (centres unmarked) [Example 8, 6-[2-cyano-3-[[ethyl(methyl)sulfamoyl]amino]-6-fluorophenoxy]-3-[2-[4-[2-[4-[4-[(2,6-dioxopiperidin-3-yl)amino]-2-fluorophenyl]piperidin-1-yl]acetyl]piperazin-1-yl]ethyl]-4-oxoquinazoline] | 27.9 nM | 10% | – |
| CCN(C)S(=O)(=O)Nc1ccc(F)c(Oc2ccc3ncn(CCN4CCN(C(=O)CN5CCC(c6ccc(NC7CCC(=O)NC7=O)cc6)CC5)CC4)c(=O)c3c2)c1C#N (centres unmarked) [Example 9, 6-[2-cyano-3-[[ethyl(methyl)sulfamoyl]amino]-6-fluorophenoxy]-3-[2-[4-[2-[4-[4-[(2,6-dioxopiperidin-3-yl)amino]phenyl]piperidin-1-yl]acetyl]piperazin-1-yl]ethyl]-4-oxoquinazoline] | 41.9 nM | 9.87% | – |
| CCN(C)S(=O)(=O)Nc1ccc(F)c(Oc2ccc3ncn(C(C)CCC4CCN(C(=O)CN5CCC(c6ccc(NC7CCC(=O)NC7=O)cc6F)CC5)CC4)c(=O)c3c2)c1C#N (centres unmarked) [Example 10, 6-[2-cyano-3-[[ethyl(methyl)sulfamoyl]amino]-6-fluorophenoxy]-3-[4-[1-[2-[4-[4-[(2,6-dioxopiperidin-3-yl)amino]-2-fluorophenyl]piperidin-1-yl]acetyl]piperidin-4-yl]butan-2-yl]-4-oxoquinazoline] | 41.9 nM | 12.6% | – |
| CCN(C)S(=O)(=O)Nc1ccc(F)c(Oc2ccc3ncn(CCC(C)C4CCN(C(=O)CN5CCC(c6ccc(NC7CCC(=O)NC7=O)cc6F)CC5)CC4)c(=O)c3c2)c1C#N (centres unmarked) [Example 11, 6-[2-cyano-3-[[ethyl(methyl)sulfamoyl]amino]-6-fluorophenoxy]-3-[3-[1-[2-[4-[4-[(2,6-dioxopiperidin-3-yl)amino]-2-fluorophenyl]piperidin-1-yl]acetyl]piperidin-4-yl]butyl]-4-oxoquinazoline] | 10.1 nM | 9.52% | – |
| CCN(C)S(=O)(=O)Nc1ccc(F)c(Oc2ccc3ncn(CCCC4(C)CCN(C(=O)CN5CCC(c6ccc(NC7CCC(=O)NC7=O)cc6F)CC5)CC4)c(=O)c3c2)c1C#N (centres unmarked) [Example 12, 6-[2-cyano-3-[[ethyl(methyl)sulfamoyl]amino]-6-fluorophenoxy]-3-[3-[1-[2-[4-[4-[(2,6-dioxopiperidin-3-yl)amino]-2-fluorophenyl]piperidin-1-yl]acetyl]-4-methylpiperidin-4-yl]propyl]-4-oxoquinazoline] | 29.2 nM | 8.33% | – |
| CCN(C)S(=O)(=O)Nc1ccc(F)c(Oc2ccc3ncn(CCC4(F)CCN(C(=O)CN5CCC(c6ccc(NC7CCC(=O)NC7=O)cc6F)CC5)CC4)c(=O)c3c2)c1C#N (centres unmarked) [Example 13, 6-[2-cyano-3-[[ethyl(methyl)sulfamoyl]amino]-6-fluorophenoxy]-3-[2-[1-[2-[4-[4-[(2,6-dioxopiperidin-3-yl)amino]-2-fluorophenyl]piperidin-1-yl]acetyl]-4-fluoropiperidin-4-yl]ethyl]-4-oxoquinazoline] | 26.2 nM | 8.27% | – |
| CCN(C)S(=O)(=O)Nc1ccc(F)c(Oc2ccc3ncn(CC(C)CC4CCN(C(=O)CN5CCC(c6ccc(NC7CCC(=O)NC7=O)cc6F)CC5)CC4)c(=O)c3c2)c1C#N (centres unmarked) [Example 14, 6-[2-cyano-3-[[ethyl(methyl)sulfamoyl]amino]-6-fluorophenoxy]-3-[3-[1-[2-[4-[4-[(2,6-dioxopiperidin-3-yl)amino]-2-fluorophenyl]piperidin-1-yl]acetyl]piperidin-4-yl]-2-methylpropyl]-4-oxoquinazoline] | 12.5 nM | – | 8.11% |
| CCN(C)S(=O)(=O)Nc1ccc(F)c(Oc2ccc3ncn(CCCC4(F)CCN(C(=O)CN5CCC(c6ccc(NC7CCC(=O)NC7=O)cc6F)CC5)CC4)c(=O)c3c2)c1C#N (centres unmarked) [Example 15, 6-[2-cyano-3-[[ethyl(methyl)sulfamoyl]amino]-6-fluorophenoxy]-3-[3-[1-[2-[4-[4-[(2,6-dioxopiperidin-3-yl)amino]-2-fluorophenyl]piperidin-1-yl]acetyl]-4-fluoropiperidin-4-yl]propyl]-4-oxoquinazoline] | 11.1 nM | 7.29% | – |
| CCN(C)S(=O)(=O)Nc1ccc(F)c(Oc2ccc3ncn(-c4cnn(C5CCN(C(=O)CN6CCC(c7ccc(NC8CCC(=O)NC8=O)cc7F)CC6)CC5)c4)c(=O)c3c2)c1C#N (centres unmarked) [Example 16, 6-[2-cyano-3-[[ethyl(methyl)sulfamoyl]amino]-6-fluorophenoxy]-3-[1-[1-[2-[4-[4-[(2,6-dioxopiperidin-3-yl)amino]-2-fluorophenyl]piperidin-1-yl]acetyl]piperidin-4-yl]pyrazol-4-yl]-4-oxoquinazoline] | 20.5 nM | 15.5% | – |
| CCN(C)S(=O)(=O)Nc1ccc(F)c(Oc2ccc3ncn(-c4cnn(C5CCN(C(=O)CN6CCC(c7ccc(C8CCC(=O)NC8=O)cc7F)CC6)CC5)c4)c(=O)c3c2)c1C#N (centres unmarked) [Example 17, 6-[2-cyano-3-[[ethyl(methyl)sulfamoyl]amino]-6-fluorophenoxy]-3-[1-[1-[2-[4-[4-(2,6-dioxopiperidin-3-yl)-2-fluorophenyl]piperidin-1-yl]acetyl]piperidin-4-yl]pyrazol-4-yl]-4-oxoquinazoline] | 44 nM | 20.7% | – |
| CCN(C)S(=O)(=O)Nc1ccc(F)c(Oc2ccc3ncn(-c4cnn(C5CCN(C(=O)CN6CCC(c7ccc(NC8CCC(=O)NC8=O)cc7)CC6)CC5)c4)c(=O)c3c2)c1C#N (centres unmarked) [Example 18, 6-[2-cyano-3-[[ethyl(methyl)sulfamoyl]amino]-6-fluorophenoxy]-3-[1-[1-[2-[4-[4-[(2,6-dioxopiperidin-3-yl)amino]phenyl]piperidin-1-yl]acetyl]piperidin-4-yl]pyrazol-4-yl]-4-oxoquinazoline] | 30.7 nM | 18.5% | – |
| CCN(C)S(=O)(=O)Nc1ccc(F)c(Oc2ccc3ncn(-c4cnn(C5CCN(C(=O)CN6CCC(c7ccc(NC8CCC(=O)NC8=O)c(F)c7)CC6)CC5)c4)c(=O)c3c2)c1C#N (centres unmarked) [Example 19, 6-[2-cyano-3-[[ethyl(methyl)sulfamoyl]amino]-6-fluorophenoxy]-3-[1-[1-[2-[4-[4-[(2,6-dioxopiperidin-3-yl)amino]-3-fluorophenyl]piperidin-1-yl]acetyl]piperidin-4-yl]pyrazol-4-yl]-4-oxoquinazoline] | 42.3 nM | – | 20.6% |
| CCN(C)S(=O)(=O)Nc1ccc(F)c(Oc2ccc3ncn(-c4cnn(C5CCN(C(=O)CN6CCC(c7c(F)cc(NC8CCC(=O)NC8=O)cc7F)CC6)CC5)c4)c(=O)c3c2)c1C#N (centres unmarked) [Example 20, 6-[2-cyano-3-[[ethyl(methyl)sulfamoyl]amino]-6-fluorophenoxy]-3-[1-[1-[2-[4-[4-[(2,6-dioxopiperidin-3-yl)amino]-2,6-difluorophenyl]piperidin-1-yl]acetyl]piperidin-4-yl]pyrazol-4-yl]-4-oxoquinazoline] | 14.4 nM | 17.7% | – |
| CCN(C)S(=O)(=O)Nc1ccc(F)c(Oc2ccc3ncn(-c4cnn(C5CCN(CC(=O)N6CCC(c7ccc(NC8CCC(=O)NC8=O)cc7)CC6)CC5)c4)c(=O)c3c2)c1C#N (centres unmarked) [Example 21, 6-[2-cyano-3-[[ethyl(methyl)sulfamoyl]amino]-6-fluorophenoxy]-3-[1-[1-[2-[4-[4-[(2,6-dioxopiperidin-3-yl)amino]phenyl]piperidin-1-yl]-2-oxoethyl]piperidin-4-yl]pyrazol-4-yl]-4-oxoquinazoline] | 34.3 nM | 19.6% | – |
| CCN(C)S(=O)(=O)Nc1ccc(F)c(Oc2ccc3ncn(C4CC5(CCN(C(=O)CN6CCC(c7ccc(NC8CCC(=O)NC8=O)cc7F)CC6)CC5)C4)c(=O)c3c2)c1C#N (centres unmarked) [Example 22, 6-[2-cyano-3-[[ethyl(methyl)sulfamoyl]amino]-6-fluorophenoxy]-3-[7-[2-[4-[4-[(2,6-dioxopiperidin-3-yl)amino]-2-fluorophenyl]piperidin-1-yl]acetyl]-7-azaspiro[3.5]nonan-2-yl]-4-oxoquinazoline] | 11.2 nM | 11.5% | – |
